Results on three compounds are retold here after ChEMBL document CHEMBL3045878, “Effect of Insect Hormone Related Compounds on the Growth of Insect Cells” (1997).

Common to all, as to format: functional
Assay [1] in a line: Juvenile hormone mimic activity in Spodoptera frugiperda (fall armyworm) Sf21 cells assessed as cell number at 3.7 x 10 '-9 M after 5 days by trypan blue exclusion assay.
Assay [2] is described as follows: Juvenile hormone mimic activity in Spodoptera frugiperda (fall armyworm) Sf21 cells assessed as cell number at 3.7 x 10 '-7 M after 5 days by trypan blue exclusion assay.
The nature of assay [3]: Juvenile hormone mimic activity in Spodoptera frugiperda (fall armyworm) Sf21 cells assessed as cell number at 3.7 x 10 '-10 M after 5 days by trypan blue exclusion assay.
A short description of assay [4]: Juvenile hormone mimic activity in Spodoptera frugiperda (fall armyworm) Sf21 cells assessed as cell number at 3.7 x 10 '-11 M after 5 days by trypan blue exclusion assay.
Assay [5] is described as follows: Juvenile hormone mimic activity in Spodoptera frugiperda (fall armyworm) Sf21 cells assessed as cell number at 3.7 x 10 '-8 M after 5 days by trypan blue exclusion assay.
Assay [6] in a line: Juvenile hormone mimic activity in Spodoptera frugiperda (fall armyworm) Sf21 cells assessed as cell number at 3.7 x 10 '-12 M after 5 days by trypan blue exclusion assay.

For the compound `CCc1ccc(C(=O)NN(C(=O)c2cc(C)cc(C)c2)C(C)(C)C)cc1` [TEBUFENOZIDE], the Activity is recorded as 5.7% in assay [1]; 4.3% in assay [2]; 5.6% in assay [3]; 5.4% in assay [4]; 5.1% in assay [5].
For `CC(C)=CCC/C(C)=C/c1cncn1Cc1ccccc1` the same measures were 4.9%, 3.3%, 5.5%, 5.5% and 4.2%.
Regarding `COC(C)(C)CCC[C@H](C)C/C=C/C(C)=C/C(=O)OC(C)C` [METHOPRENE], the Activity in assay [6] was determined as 6.4%; in assay [1] it was 6.5%; in assay [2], 6%; in assay [3], 6.9%; in assay [4] it was 6.7%; in assay [5], 6%.
